Assay results published in publication PMC12120022, “Discovery and chemical optimisation of a potent, Bi-cyclic antimicrobial inhibitor of Escherichia coli PBP3” (Communications Biology, 2025).
Where a SMILES comes first, the peptide text is derived from it.

Target: T1, EcPBP3 (Escherichia coli, UniProt P0AD68)
T1 construct: For assays, selections and SPR a construct with residues 60–588 which has the N-terminal domain, but not the transmembrane helix, was used; made in house
Assay: SPR binding assay on immobilised EcPBP3
Conditions: for Kd: 37 °C, kinetic fitting, NB = no binding at 2500 nM (Tables S-4, S-5) or 5000 nM (Table 1), read-out: Kd (nM) by SPR (geomean); for Improvement in binding affinity: hydrophobic extension of Trp6, relative to parent peptide
Description: Surface plasmon resonance (SPR) assays were performed using EcPBP3 immobilized on CM5 sensor chips (GE Healthcare) via amine-coupling chemistry in assay buffer (10 mM HEPES pH 8.0, 200 mM NaCl, 0.05% (v/v) surfactant P20). The chip surface was activated by injection (10 μL min^–1) of 0.4 M EDC and 0.1 M NHS (in a 1:1 ratio) with a 7 min contact time. Protein was diluted to 25 μg mL^–1 in 10 mM MOPS (pH 7.0) and injected over the activated sensor chip surface to reach immobilization of 1500-2500 response units. Excess hydroxysuccinimidyl groups on the chip surface were deactivated by injection (10 μL min^–1) of 1 M ethanolamine hydrochloride pH 8.0 with a 7 min contact time. Reference flow cells were prepared as described, but without ligand (EcPBP3 protein).
Binding analysis runs were performed at 37 °C in running buffer (10 mM HEPES pH 8.0, 200 mM NaCl, 0.05% (w/v) Tween-20, 2% (v/v) DMSO). Test compounds (and control runs of buffer only) were injected in running buffer over the EcPBP3 chip and reference flow cell, at flow rate of 50 μL min^–1 for 150 s contact time and 2400 s dissociation time. Each injection was followed by a wash with 50% (v/v) DMSO. All compounds were tested in at least two independent biological replicates unless otherwise stated.
Raw sensorgrams data were solvent-corrected, reference-subtracted and blank-buffer-subtracted (double-referencing) before kinetic and affinity analysis to account for non-specific binding and injection artifacts. Equilibrium dissociation constant (Kd) values was determined using the Biacore™ Insight Evaluation Software (version 4.0.8 or version 5.0.17) using kinetic fitting. Kd values presented are the geometric mean of at least two biological replicates.

T1 sequence (P0AD68 60-588): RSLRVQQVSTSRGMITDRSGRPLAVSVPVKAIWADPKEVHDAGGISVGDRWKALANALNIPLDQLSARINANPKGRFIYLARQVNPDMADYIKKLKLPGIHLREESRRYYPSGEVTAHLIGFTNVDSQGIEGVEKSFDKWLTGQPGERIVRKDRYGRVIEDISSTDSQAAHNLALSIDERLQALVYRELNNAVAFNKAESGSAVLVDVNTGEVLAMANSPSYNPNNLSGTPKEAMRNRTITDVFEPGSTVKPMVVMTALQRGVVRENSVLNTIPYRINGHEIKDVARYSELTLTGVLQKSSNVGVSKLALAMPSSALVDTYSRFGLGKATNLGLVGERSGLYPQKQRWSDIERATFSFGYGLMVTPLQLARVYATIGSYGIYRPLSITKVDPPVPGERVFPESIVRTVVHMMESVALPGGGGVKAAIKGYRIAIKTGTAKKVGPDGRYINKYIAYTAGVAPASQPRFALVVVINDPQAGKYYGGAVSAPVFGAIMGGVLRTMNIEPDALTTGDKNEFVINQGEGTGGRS

How did the Kd turn out when `COc1ccc2[nH]cc(C[C@@H]3NC(=O)[C@@H]4CCCN4C(=O)[C@@H]4CSCCC(=O)N5CN(CN(C5)C(=O)CCSC[C@H](NC(=O)[C@H](C)N)C(=O)N[C@@H](CO)C(=O)N[C@@H](Cc5ccccc5)C(=O)N5CCC[C@H]5C(=O)N[C@@H](CCCCN)C(=O)N4)C(=O)CCSC[C@@H](C(=O)N[C@@H](C)C(N)=O)NC(=O)CNC(=O)[C@H](CCC(=O)O)NC(=O)[C@H](C(C)C)NC3=O)c2c1` [Peptide 63] was run?
Its Kd is 175 nM.

`CC(C)[C@@H]1NC(=O)[C@H](Cc2cnc3ccccc3c2)NC(=O)[C@@H]2CCCN2C(=O)[C@@H]2CSCCC(=O)N3CN(CN(C3)C(=O)CCSC[C@H](NC(=O)[C@H](C)N)C(=O)N[C@@H](CO)C(=O)N[C@@H](Cc3ccccc3)C(=O)N3CCC[C@H]3C(=O)N[C@@H](CCCCN)C(=O)N2)C(=O)CCSC[C@@H](C(=O)N[C@@H](C)C(N)=O)NC(=O)CNC(=O)[C@H](CCC(=O)O)NC1=O` [Peptide 62] was tested. Which Kd did it give?
Its Kd is 27 nM.

For `CC(C)[C@@H]1NC(=O)[C@H](Cc2c[nH]c3ccccc23)NC(=O)[C@H](C)NC(=O)[C@@H]2CSCCC(=O)N3CN(CN(C3)C(=O)CCSC[C@H](NC(=O)[C@H](C)N)C(=O)N[C@@H](CO)C(=O)N[C@@H](Cc3ccccc3)C(=O)N3CCC[C@H]3C(=O)N[C@@H](CCCCN)C(=O)N2)C(=O)CCSC[C@@H](C(=O)N[C@@H](C)C(N)=O)NC(=O)CNC(=O)[C@H](CCC(=O)O)NC1=O` [Peptide 20], which Kd is on record?
Its Kd is 1380 nM.

For `Cc1ccc(C[C@@H]2NC(=O)[C@H](CO)NC(=O)[C@@H](NC(=O)[C@H](C)N)CSCCC(=O)N3CN4CN(C3)C(=O)CCSC[C@H](NC(=O)[C@H](CCCCN)NC(=O)[C@@H]3CCCN3C2=O)C(=O)N2CCC[C@H]2C(=O)N[C@@H](Cc2c[nH]c3ccccc23)C(=O)N[C@@H](C(C)C)C(=O)N[C@@H](CCC(=O)O)C(=O)NCC(=O)N[C@H](C(=O)N[C@@H](C)C(N)=O)CSCCC4=O)cc1` [Peptide 58], which Kd is on record?
The Kd was 5.06 nM.

`C[C@H](N)C(=O)N[C@H]1CSCCC(=O)N2CN3CN(C2)C(=O)CCSC[C@H](NC(=O)[C@H](CCCCN)NC(=O)[C@@H]2CCCN2C(=O)[C@H](Cc2ccccc2)NC(=O)[C@H](CO)NC1=O)C(=O)N1CCC[C@H]1C(=O)N[C@@H](Cc1c[nH]c2ccccc12)C(=O)N[C@@H](C1CCC1)C(=O)N[C@@H](CCC(=O)O)C(=O)NCC(=O)N[C@H](C(=O)N[C@@H](C)C(N)=O)CSCCC3=O` [Peptide 68] (HELM PEPTIDE1{A.C.S.F.P.K.C.P.W.[O=C([C@@H](N[*:1])C1CCC1)[*:2]].E.G.C.A.[am]}|CHEM1{[O=C(CC[*:1])N1CN(C(=O)CC[*:2])CN(C(=O)CC[*:3])C1]}$PEPTIDE1,CHEM1,2:R3-1:R1|PEPTIDE1,CHEM1,7:R3-1:R2|PEPTIDE1,CHEM1,13:R3-1:R3$$$V2.0) was tested. Which Kd did it give?
The Kd was 187 nM.

How did the Kd turn out when `C[C@H](N)C(=O)N[C@H]1CSCCC(=O)N2CN3CN(C2)C(=O)CCSC[C@H](NC(=O)[C@H](CCCCN)NC(=O)[C@@H]2CCCN2C(=O)[C@H](Cc2ccccc2)NC(=O)[C@H](CO)NC1=O)C(=O)N1CCC[C@H]1C(=O)N[C@@H](Cc1c[nH]c2ccccc12)C(=O)N[C@@H](C(C)(C)C)C(=O)N[C@@H](CCC(=O)O)C(=O)NCC(=O)N[C@H](C(=O)N[C@@H](C)C(N)=O)CSCCC3=O` [Peptide 67] (HELM PEPTIDE1{A.C.S.F.P.K.C.P.W.[CC(C)(C)[C@H](N[*:1])C(=O)[*:2]].E.G.C.A.[am]}|CHEM1{[O=C(CC[*:1])N1CN(C(=O)CC[*:2])CN(C(=O)CC[*:3])C1]}$PEPTIDE1,CHEM1,2:R3-1:R1|PEPTIDE1,CHEM1,7:R3-1:R2|PEPTIDE1,CHEM1,13:R3-1:R3$$$V2.0) was run?
Its Kd is 574 nM.

How did the Kd turn out when `CC(C)[C@@H]1NC(=O)[C@H](Cc2c[nH]c3cc(F)ccc23)NC(=O)[C@@H]2CCCN2C(=O)[C@@H]2CSCCC(=O)N3CN(CN(C3)C(=O)CCSC[C@H](NC(=O)[C@H](C)N)C(=O)N[C@@H](CO)C(=O)N[C@@H](Cc3ccccc3)C(=O)N3CCC[C@H]3C(=O)N[C@@H](CCCCN)C(=O)N2)C(=O)CCSC[C@@H](C(=O)N[C@@H](C)C(N)=O)NC(=O)CNC(=O)[C@H](CCC(=O)O)NC1=O` [Peptide 66] was run?
The Kd was 0.489 nM.

And the “Improvement in binding affinity” value?
Its value is “More than 10 fold”.

`CC(C)[C@@H]1NC(=O)[C@H](Cc2c[nH]c3ccccc23)NC(=O)[C@@H]2CCCN2C(=O)[C@@H]2CSCCC(=O)N3CN(CN(C3)C(=O)CCSC[C@H](NC(=O)[C@H](C)N)C(=O)N[C@@H](CO)C(=O)N[C@@H](CCc3ccccc3)C(=O)N3CCC[C@H]3C(=O)N[C@@H](CCCCN)C(=O)N2)C(=O)CCSC[C@@H](C(=O)N[C@@H](C)C(N)=O)NC(=O)CNC(=O)[C@H](CCC(=O)O)NC1=O` [Peptide 61] was tested. Which Kd did it give?
The Kd was 232 nM.

What does the source list for `CC(C)[C@@H]1NC(=O)[C@H](Cc2c[nH]c3cc(Cl)ccc23)NC(=O)[C@@H]2CCCN2C(=O)[C@@H]2CSCCC(=O)N3CN(CN(C3)C(=O)CCSC[C@H](NC(=O)[C@H](C)N)C(=O)N[C@@H](CO)C(=O)N[C@@H](Cc3ccccc3)C(=O)N3CCC[C@H]3C(=O)N[C@@H](CCCCN)C(=O)N2)C(=O)CCSC[C@@H](C(=O)N[C@@H](C)C(N)=O)NC(=O)CNC(=O)[C@H](CCC(=O)O)NC1=O` [Peptide 65]?
Kd: 0.269 nM; Improvement in binding affinity: More than 10 fold

How did the Kd turn out when `CC(C)[C@@H]1NC(=O)[C@H](Cc2c[nH]c3ccccc23)NC(=O)[C@@H]2CCCN2C(=O)[C@@H]2CSCCC(=O)N3CN(CN(C3)C(=O)CCSC[C@H](NC(=O)[C@H](C)N)C(=O)N[C@@H](CO)C(=O)N[C@@H](Cc3c(F)c(F)c(F)c(F)c3F)C(=O)N3CCC[C@H]3C(=O)N[C@@H](CCCCN)C(=O)N2)C(=O)CCSC[C@@H](C(=O)N[C@@H](C)C(N)=O)NC(=O)CNC(=O)[C@H](CCC(=O)O)NC1=O` [Peptide 54] was run?
The Kd was 701 nM.

How did the Kd turn out when `CC(C)[C@@H]1NC(=O)[C@H](Cc2c[nH]c3ccccc23)NC(=O)[C@@H]2CCCN2C(=O)[C@@H]2CSCCC(=O)N3CN(CN(C3)C(=O)CCSC[C@H](NC(=O)[C@H](C)N)C(=O)N[C@@H](CO)C(=O)N[C@@H](C)C(=O)N3CCC[C@H]3C(=O)N[C@@H](CCCCN)C(=O)N2)C(=O)CCSC[C@@H](C(=O)N[C@@H](C)C(N)=O)NC(=O)CNC(=O)[C@H](CCC(=O)O)NC1=O` [Peptide 17] was run?
The Kd was greater than 2500 nM.

`CC(C)[C@@H]1NC(=O)[C@H](Cc2c[nH]c3ccccc23)NC(=O)[C@@H]2CCCN2C(=O)[C@@H]2CSCCC(=O)N3CN(CN(C3)C(=O)CCSC[C@H](NC(=O)[C@H](C)N)C(=O)N[C@@H](CO)C(=O)N[C@@H](Cc3cccc(F)c3)C(=O)N3CCC[C@H]3C(=O)N[C@@H](CCCCN)C(=O)N2)C(=O)CCSC[C@@H](C(=O)N[C@@H](C)C(N)=O)NC(=O)CNC(=O)[C@H](CCC(=O)O)NC1=O` [Peptide 55] was tested. Which Kd did it give?
The Kd was 16.8 nM.

Which Kd does the source give for `Cc1ccccc1C[C@@H]1NC(=O)[C@H](CO)NC(=O)[C@@H](NC(=O)[C@H](C)N)CSCCC(=O)N2CN3CN(C2)C(=O)CCSC[C@H](NC(=O)[C@H](CCCCN)NC(=O)[C@@H]2CCCN2C1=O)C(=O)N1CCC[C@H]1C(=O)N[C@@H](Cc1c[nH]c2ccccc12)C(=O)N[C@@H](C(C)C)C(=O)N[C@@H](CCC(=O)O)C(=O)NCC(=O)N[C@H](C(=O)N[C@@H](C)C(N)=O)CSCCC3=O` [Peptide 57] here?
Its Kd is 22.3 nM.

How did the Kd turn out when `CC(C)[C@@H]1NC(=O)[C@H](Cc2c[nH]c3ccccc23)NC(=O)[C@@H]2CCCN2C(=O)[C@@H]2CSCCC(=O)N3CN(CN(C3)C(=O)CCSC[C@H](NC(=O)[C@H](C)N)C(=O)N[C@@H](CO)C(=O)N[C@@H](Cc3ccccc3F)C(=O)N3CCC[C@H]3C(=O)N[C@@H](CCCCN)C(=O)N2)C(=O)CCSC[C@@H](C(=O)N[C@@H](C)C(N)=O)NC(=O)CNC(=O)[C@H](CCC(=O)O)NC1=O` [Peptide 56] was run?
Its Kd is 56.6 nM.

How did the Kd turn out when `CC(C)[C@@H]1NC(=O)[C@H](Cc2c[nH]c3ccccc23)NC(=O)[C@@H]2CCCN2C(=O)[C@@H]2CSCCC(=O)N3CN(CN(C3)C(=O)CCSC[C@H](NC(=O)[C@H](C)N)C(=O)N[C@@H](CO)C(=O)N[C@@H](Cc3ccccn3)C(=O)N3CCC[C@H]3C(=O)N[C@@H](CCCCN)C(=O)N2)C(=O)CCSC[C@@H](C(=O)N[C@@H](C)C(N)=O)NC(=O)CNC(=O)[C@H](CCC(=O)O)NC1=O` [Peptide 60] (HELM PEPTIDE1{A.C.S.[O=C([C@H](Cc1ccccn1)N[*:1])[*:2]].P.K.C.P.W.V.E.G.C.A.[am]}|CHEM1{[O=C(CC[*:1])N1CN(C(=O)CC[*:2])CN(C(=O)CC[*:3])C1]}$PEPTIDE1,CHEM1,2:R3-1:R1|PEPTIDE1,CHEM1,7:R3-1:R2|PEPTIDE1,CHEM1,13:R3-1:R3$$$V2.0) was run?
Its Kd is 122 nM.

`CC(C)[C@@H]1NC(=O)[C@H](Cc2c[nH]c3ccccc23)NC(=O)[C@@H]2CCCN2C(=O)[C@@H]2CSCCC(=O)N3CN(CN(C3)C(=O)CCSC[C@H](NC(=O)[C@H](C)N)C(=O)N[C@@H](CO)C(=O)N[C@@H](Cc3ccncc3)C(=O)N3CCC[C@H]3C(=O)N[C@@H](CCCCN)C(=O)N2)C(=O)CCSC[C@@H](C(=O)N[C@@H](C)C(N)=O)NC(=O)CNC(=O)[C@H](CCC(=O)O)NC1=O` [Peptide 59] (HELM PEPTIDE1{A.C.S.[O=C([C@H](Cc1ccncc1)N[*:1])[*:2]].P.K.C.P.W.V.E.G.C.A.[am]}|CHEM1{[O=C(CC[*:1])N1CN(C(=O)CC[*:2])CN(C(=O)CC[*:3])C1]}$PEPTIDE1,CHEM1,2:R3-1:R1|PEPTIDE1,CHEM1,7:R3-1:R2|PEPTIDE1,CHEM1,13:R3-1:R3$$$V2.0) was tested. Which Kd did it give?
Its Kd is 121 nM.
